These results are taken from the NIST ThermoML archive (doi:10.1021/acs.jced.7b00840).

± gives the expanded uncertainty stated by the source.

The conditions of this data set: Crystal; visual observation.

As for `Nc1ccccc1I` [2-iodoaniline], the Triple point temperature worked out at 325.7 ± 1.2 K.

For the compound `Nc1ccc(I)cc1` [4-iodoaniline], the Triple point temperature is listed as 332.35 ± 0.87 K.
